The values that follow come from patent US4771068A, “Mitomycin derivatives having anti-tumor and antibacterial utility” (priority 1985, dated 1988).

Converted amounts (≈) assume the structure as drawn. Where only a bound is given, the exact number is not on record here.

One data set has as its system Bacillus subtilis 10707. Kind of data set: Antibacterial activity (minimum growth inhibitory concentration), agar dilution method. To be noted: Bacillus subtilis 10707, pH 7.0, agar dilution method; read-out: minimum growth inhibitory concentration, BS. It counts as cell-based. The procedure:
(§1) Antibacterial activities of Compounds (I) against various bacteria are shown by the minimum growth inhibitory concentration (μg/ml) in Table 3. The minimum growth inhibitory concentration was measured at pH 7.0 according to the agar dilution method. In the table, bacteria are indicated by the following letters.
BS: Bacillus subtilis 10707

Data set [1] concerns Staphylococcus aureus ATCC 6538P. Described as above. Particulars: ATCC6538P, pH 7.0, agar dilution method, read-out: minimum growth inhibitory concentration, SA. The data set is classed as cell-based. Here is the method: as §1
SA: Staphylococcus aureus ATCC 6538P

For the next data set, the system named is peripheral leucocytes. As to the kind of experiment: Effect on the peripheral leucocytes number. The data set is classed as in vivo, mouse (ddY strain). Particulars: minimum dose reducing peripheral leucocytes number to 4000/mm^3; tumour-carrying ddY mice, intraperitoneal, 4 days after administration. The procedure:
WBC4000 : Minimum dose of a test compound which reduces the
peripheral leucocytes number to 4000/mm^3.
Sarcoma 180 solid tumour cells (5×10^6) were subcutaneously implanted into the right axilla of each mouse (body weight 20±2 g) of a group consisting of 5 male mice (ddY strain). 24 hours after implantation,a test compound was intraperitoneally administered to each animal. 4 days after the administration, blood (each 0.02 ml) was collected from the suborbital plexus vein of each tumour-carrying animal. The collected sample of blood was dispersed in 9.98 ml of Cell-Kit Seven solution. One drop of saponin solution was added to the sample to dissolve erythrocytes and then a microcell counter was used to count the number of leucocytes. […] The relationship between the number of peripheral leucocytes and the dose of the test compound was plotted and the dose (i.e., WBC4000) corresponding to 4000 peripheral leucocytes/mm^3 (about half the number of leucocytes of normal mice) was obtained.

For data set [2], the system named is Klebsiella pneumoniae ATCC 10031. Kind of data set: Antibacterial activity (minimum growth inhibitory concentration), agar dilution method. To be noted: ATCC10031; Klebsiella pneumoniae ATCC 10031, pH 7.0, agar dilution method; read-out: minimum growth inhibitory concentration, KP. It counts as cell-based. Here is the method: as §1
KP: Klebsiella pneumoniae ATCC 10031

A further data set can be described thus: Solubility in water. It counts as physicochemical. To be noted: aqueous buffer; 0.03M phosphate buffer (pH 7.0), 22° C., 15 minutes. Here is the method: 1 mg of a test compound was added to 100 μl of 0.03M phosphate buffer (pH 7.0). The mixture was stirred at 22° C. for 15 minutes and filtered through Ekicrodisc 3 (disposable filter unit, Gelman Sciences Japan Co.) to remove insoluble matters. The filtrate is a saturated solution of the test compound. Predetermined amount of the saturated solution was injected into a high performance liquid chromatograph [column: YMC-A212 (C8) .phi.6 mm, 150 mm, eluting solvent: 0.01M-ammonium acetate/methanol, wave length for detection: 254 nm] and peak area of the chromatogram was calculated. Separately, a solution of the test compound in methanoL having a certain concentration of the compound was similarly subjected to the chromatography to make the calibration curve. The solubility of the test compound was calculated by the calibration curve.

Data set [3] deals with Streptococcus faecalis ATCC 10541. Kind of data set: Antibacterial activity (minimum growth inhibitory concentration), agar dilution method. Particulars: Enterococcus faecalis, ATCC10541; Streptococcus faecalis ATCC 10541, pH 7.0, agar dilution method; read-out: minimum growth inhibitory concentration, SF. The data set is classed as cell-based. The procedure:
as §1
SF: Streptococcus faecalis ATCC 10541
(In general: In agar dilution, organisms are placed on agar that contains the substance at set levels.)

A further data set in a line: Acute toxicity. To be noted: mouse, in vivo, ip; ddY mice, intraperitoneally once, 14 days observation. Here is the method: Each animal of the test group consisting of 5 ddY mice was administered intraperitoneally once with a test compound. […] The LD50 was determined by Beherns Kaerber's method.
For the next data set, the system named is Sarcoma 180 solid tumour. As to the kind of experiment: animal or person. To be noted: for CIc: CI of test compound divided by CI of mitomycin C as control in the same condition; for ED50: Mus musculus, Sarcoma-180, iv, 168 h; for CI (LD50/ED50): chemotherapeutic index. From the text:
CIc : Value given by division of CI of each test compound by CI of
determination of antitumour activity of the test compound. A CIc
5×10^6 cells of Sarcoma 180 solid tumour were intraperitoneally implanted into ddY mice. 7 days later, ascites cells were sampled. The cells were washed once with a sterilized physiological sodium chloride solution and were used to prepare a cell suspension containing 5×10^7 cells per ml with a sterilized physiological sodium chloride solution. On each occasion, 0.1 ml of the cell suspension was subcutaneously implanted into the right axilla of a male mouse (ddY strain; body weight 20±2 g).
The anti-tumour activity was determined in the following manner. 7 days after the implantation, the major axis (a) and the minor axis (b) of the tumour were measured to calculate a value of "a×b^2 /2" which corresponds to the volume of the tumour. The anti-tumour activity was expressed by the ratio (T/C) of the volume (T) of the tumours of the group of animals administered with the test compound to the corresponding volume (C) of tumours of the untreated animals.
On graph paper, T/C was indicated by an arithmetic scale on the longitudinal axis and the administered amount of the test compound was indicated by a logarithmic scale on the lateral axis.

Data set [4] has as its system Proteus vulgalis ATCC 6897. Kind of data set: Antibacterial activity (minimum growth inhibitory concentration), agar dilution method. It counts as cell-based. Particulars: pH 7, read-out: minimum growth inhibitory concentration, PV. Here is the method: as §1
PV: Proteus vulgalis ATCC 6897

Usually solubility stands for the dissolved amount per volume that the medium holds. A higher solubility goes with a readily soluble substance. Usually LD50 stands for the dose at which mortality reaches 50%. Low values mean greater toxicity, high ones lower toxicity. For orientation: ED50 means the midpoint of the dose-response relation. Read a low ED50 as greater potency. For `CO[C@@]12[C@H](COC(N)=O)C3=C(C(=O)C(C)=C(NCCCCCCSC(C)=O)C3=O)N1C[C@@H]1N[C@@H]12` [Compound 11], the MIC came to 0.16 µg/mL (≈ 0.325 µM) with Bacillus subtilis 10707; 0.16 µg/mL (≈ 0.325 µM) in data set [1]; 1.3 µg/mL (≈ 2.64 µM) in data set [2]; 0.16 µg/mL (≈ 0.325 µM) in data set [3]; 2.5 µg/mL (≈ 5.08 µM) in data set [4]. This compound displayed a WBC4000 in the data set on peripheral leucocytes of 31.3 mg/kg. In “Solubility in water”, this compound displayed a solubility at 0.25 h of 210 µg/mL (≈ 426 µM). For the same compound, the median lethal dose (LD50) at 336 h in the data set “Acute toxicity” was above 200 mg/kg. In the data set on Sarcoma 180 solid tumour, this compound registered a CIc of 3.9. The compound also displayed an ED50 with Sarcoma 180 solid tumour of 27 mg/kg. In the data set on Sarcoma 180 solid tumour, the “CI (LD50/ED50)” value is recorded as above 7.4.

Consider `CO[C@@]12[C@H](COC(N)=O)C3=C(C(=O)C(C)=C(NCCSC(=O)c4ccccc4)C3=O)N1C[C@@H]1N[C@@H]12` [Compound 13], for which the MIC was below 0.02 µg/mL in the data set on Bacillus subtilis 10707; below 0.02 µg/mL in data set [1]; 1.3 µg/mL (≈ 2.61 µM) in data set [2]; 0.039 µg/mL (≈ 0.0782 µM) in data set [3]; 5 µg/mL (≈ 10 µM) in [4]. The WBC4000 with peripheral leucocytes is above 5 mg/kg. The solubility at 0.25 h in “Solubility in water” was 73 µg/mL (≈ 146 µM). For the same compound, the LD50 at 336 h in the data set “Acute toxicity” is 6 mg/kg. Further, the CIc in the data set with Sarcoma 180 solid tumour was 0.91. Besides, the 50% effective dose (ED50) in the data set on Sarcoma 180 solid tumour came to 4.1 mg/kg. The “CI (LD50/ED50)” value in the data set on Sarcoma 180 solid tumour is given as 1.5.

Take `CO[C@@]12[C@H](COC(N)=O)C3=C(C(=O)C(C)=C(NCCSC(=O)c4ccc(Br)cc4)C3=O)N1C[C@@H]1N[C@@H]12` [Compound 21]: the MIC in the data set with Bacillus subtilis 10707 is below 0.02 µg/mL; in data set [1], below 0.02 µg/mL; in data set [2], 1.3 µg/mL (≈ 2.25 µM); in data set [3] it was 0.039 µg/mL (≈ 0.0675 µM); in [4] it was 5 µg/mL (≈ 8.66 µM). In addition, the WBC4000 with peripheral leucocytes is 11.5 mg/kg. For the same compound, in the data set “Solubility in water”, the solubility at 0.25 h is 4.7 µg/mL (≈ 8.14 µM). The same compound displayed an LD50 at 336 h in “Acute toxicity” of 9.4 mg/kg. In addition, in the data set with Sarcoma 180 solid tumour, the CIc came to 1.9. The ED50 with Sarcoma 180 solid tumour is 2 mg/kg. For the same compound, the “CI (LD50/ED50)” value with Sarcoma 180 solid tumour is reported as 4.7.

`CO[C@@]12[C@H](COC(N)=O)C3=C(C(=O)C(C)=C(NCCSC(C)=S)C3=O)N1C[C@@H]1N[C@@H]12` [Compound 26]: the MIC with Bacillus subtilis 10707 was below 0.02 µg/mL; in [1], below 0.02 µg/mL; in data set [2] it was 0.078 µg/mL (≈ 0.172 µM); in data set [3], below 0.02 µg/mL; in [4] it was 0.63 µg/mL (≈ 1.39 µM). Further, in the data set on peripheral leucocytes, the WBC4000 is 7.6 mg/kg. In the data set “Solubility in water”, the solubility at 0.25 h stood at 260 µg/mL (≈ 575 µM). In “Acute toxicity”, this compound showed an LD50 at 336 h of 6.6 mg/kg. The CIc in the data set with Sarcoma 180 solid tumour came to 1.6. The compound further had an ED50 with Sarcoma 180 solid tumour of 1.2 mg/kg. In the data set with Sarcoma 180 solid tumour, the “CI (LD50/ED50)” value worked out at 5.5.
